In PMC9490041, “Determinants of affinity, specificity, and phase separation in a supramodule from Post-synaptic density protein 95” (iScience, 2022):
Where two headings read alike, the source gives them in different places.

Assays:
Test in all cases: FP displacement (competition) of FITC-15 AA CRIPT by library peptide, IC50 and Ki
PSG (PSD-95) = conditions: for IC50: read-out: IC50 (µM), PSG
PSG G335A (PSD-95) = conditions: for IC50: read-out: IC50 (µM), PSG G335A; for Ki: read-out: Ki (µM), PSG G335A
PSG G322A G335A (PSD-95) = conditions: for IC50: read-out: IC50 (µM), PSG G322A G335A; for Ki: read-out: Ki (µM), PSG G322A G335A
PSG G322A (PSD-95) = conditions: for IC50: read-out: IC50 (µM), PSG G322A; for Ki: read-out: Ki (µM), PSG G322A
[1] = FP displacement of FITC-15 AA CRIPT probe by acetylated PSD library peptide
[2] = read-out: Ki (µM), PSG, FP displacement of FITC-15 AA CRIPT probe by acetylated PSD library peptide
[3] = FP displacement of FITC-15 AA CRIPT probe by acetylated PSD library peptide (P-13 to P0 plus extra N-terminal Y)
[4] = FP displacement of FITC-15 AA CRIPT probe by PSD library peptide, protein PSG (wild type)
[5] = read-out: Ki (µM), PSG, FP displacement of FITC-15 AA CRIPT probe by PSD library peptide, protein PSG (wild type)
[6] = FP displacement of FITC-15 AA CRIPT probe by PSD library peptide, protein PSG G335A
[7] = FP displacement of FITC-15 AA CRIPT probe by PSD library peptide, protein PSG G322A G335A
[8] = FP displacement of FITC-15 AA CRIPT probe by PSD library peptide, protein PSG G322A

SMILES: CC[C@H](C)[C@H](NC(=O)[C@@H](NC(=O)[C@H](CCCCN)NC(=O)[C@H](CCCCN)NC(=O)CNC(=O)[C@H](CC(C)C)NC(=O)[C@H](CCCCN)NC(=O)[C@H](C)NC(=O)[C@H](CCSC)NC(=O)[C@H](CCCNC(=N)N)NC(=O)[C@H](CCSC)NC(=O)[C@H](CCCNC(=N)N)NC(=O)[C@H](CC(C)C)NC(=O)[C@H](C)NC(=O)[C@H](Cc1ccc(O)cc1)NC(C)=O)C(C)C)C(=O)O [PALMD]
- IC50 (PSG (PSD-95); [1]): 1160 µM
- Ki (PSG (PSD-95); [2]): 493 µM
- IC50 (PSG G335A (PSD-95); [1]): 1600 µM
- Ki (PSG G335A (PSD-95); [1]): 569 µM
- IC50 (PSG G322A G335A (PSD-95); [3]): 1630 µM
- Ki (PSG G322A G335A (PSD-95); [1]): 564 µM
- IC50 (PSG G322A (PSD-95); [1]): 1450 µM
- Ki (PSG G322A (PSD-95); [1]): 629 µM

SMILES: CC(=O)N[C@@H](Cc1ccc(O)cc1)C(=O)N[C@@H](CCCNC(=N)N)C(=O)N[C@@H](CCC(N)=O)C(=O)N1CCC[C@H]1C(=O)N[C@@H](CC(C)C)C(=O)N1CCC[C@H]1C(=O)N[C@@H](CC(=O)O)C(=O)N[C@@H](CO)C(=O)N[C@@H](CC(N)=O)C(=O)N1CCC[C@H]1C(=O)N[C@@H](CCC(=O)O)C(=O)N[C@@H](CCC(=O)O)C(=O)N[C@@H](CO)C(=O)N[C@@H](CO)C(=O)N[C@H](C(=O)O)C(C)C [SEM4C]
- IC50 (PSG (PSD-95); [4]): 631 µM
- Ki (PSG (PSD-95); [5]): 269 µM
- IC50 (PSG G335A (PSD-95); [6]): 329 µM
- Ki (PSG G335A (PSD-95); [6]): 117 µM
- IC50 (PSG G322A G335A (PSD-95); [7]): 147 µM
- Ki (PSG G322A G335A (PSD-95); [7]): 51 µM
- IC50 (PSG G322A (PSD-95); [8]): 156 µM
- Ki (PSG G322A (PSD-95); [8]): 68 µM

SMILES: CC(=O)N[C@@H](Cc1ccc(O)cc1)C(=O)N1CCC[C@H]1C(=O)N[C@@H](CCC(N)=O)C(=O)N[C@@H](Cc1c[nH]cn1)C(=O)N[C@@H](CC(C)C)C(=O)N[C@@H](CCCNC(=N)N)C(=O)N[C@H](C(=O)N[C@@H](C)C(=O)N[C@@H](CO)C(=O)N[C@@H](CCCCN)C(=O)N[C@@H](CC(N)=O)C(=O)N[C@@H](CCC(=O)O)C(=O)N[C@H](C(=O)N[C@H](C(=O)N[C@H](C(=O)O)C(C)C)[C@@H](C)O)C(C)C)[C@@H](C)O [SHSA7]
- IC50 (PSG (PSD-95); [4]): 1120 µM
- Ki (PSG (PSD-95); [5]): 475 µM
- IC50 (PSG G335A (PSD-95); [6]): 980 µM
- Ki (PSG G335A (PSD-95); [6]): 349 µM
- IC50 (PSG G322A G335A (PSD-95); [7]): 1680 µM
- Ki (PSG G322A G335A (PSD-95); [7]): 580 µM
- IC50 (PSG G322A (PSD-95); [8]): 695 µM
- Ki (PSG G322A (PSD-95); [8]): 301 µM

SMILES: CC(=O)N[C@@H](Cc1ccc(O)cc1)C(=O)N[C@@H](CO)C(=O)N[C@@H](CO)C(=O)N[C@H](C(=O)N[C@@H](CO)C(=O)N1CCC[C@H]1C(=O)N[C@@H](CCC(N)=O)C(=O)N[C@@H](CO)C(=O)N[C@H](C(=O)N[C@@H](CC(=O)O)C(=O)N[C@@H](CCCCN)C(=O)N[C@@H](CO)C(=O)N[C@@H](CO)C(=O)N[C@H](C(=O)N[C@H](C(=O)O)C(C)C)[C@@H](C)O)[C@@H](C)O)[C@@H](C)O [SRGP2]
- IC50 (PSG (PSD-95); [4]): 1450 µM
- Ki (PSG (PSD-95); [5]): 765 µM
- IC50 (PSG G335A (PSD-95); [6]): 603 µM
- Ki (PSG G335A (PSD-95); [6]): 215 µM
- IC50 (PSG G322A G335A (PSD-95); [7]): 435 µM
- Ki (PSG G322A G335A (PSD-95); [7]): 151 µM
- IC50 (PSG G322A (PSD-95); [8]): 792 µM
- Ki (PSG G322A (PSD-95); [8]): 343 µM

SMILES: CC(=O)N[C@@H](Cc1ccc(O)cc1)C(=O)N[C@@H](CC(C)C)C(=O)N[C@@H](C)C(=O)N[C@@H](CC(=O)O)C(=O)N[C@@H](CCC(=O)O)C(=O)N[C@H](C(=O)N[C@@H](CO)C(=O)N[C@@H](C)C(=O)N[C@@H](CO)C(=O)N[C@@H](CC(C)C)C(=O)N[C@@H](C)C(=O)N[C@@H](CCCCN)C(=O)N[C@@H](CCC(N)=O)C(=O)NCC(=O)N[C@@H](CC(C)C)C(=O)O)C(C)C [TAU]
- IC50 (PSG (PSD-95); [4]): 2070 µM
- Ki (PSG (PSD-95); [5]): 884 µM
- IC50 (PSG G335A (PSD-95); [6]): 729 µM
- Ki (PSG G335A (PSD-95); [6]): 260 µM
- IC50 (PSG G322A G335A (PSD-95); [7]): 219 µM
- Ki (PSG G322A G335A (PSD-95); [7]): 76 µM
- IC50 (PSG G322A (PSD-95); [8]): 489 µM
- Ki (PSG G322A (PSD-95); [8]): 212 µM

SMILES: CC[C@H](C)[C@H](NC(=O)[C@H](CCC(=O)O)NC(=O)[C@H](CCC(=O)O)NC(=O)[C@@H](NC(=O)[C@@H](NC(=O)[C@H](CO)NC(=O)[C@H](CCC(=O)O)NC(=O)[C@H](Cc1ccc(O)cc1)NC(C)=O)[C@@H](C)O)[C@@H](C)O)C(=O)N[C@@H](CCC(=O)O)C(=O)N[C@@H](CC(C)C)C(=O)N[C@@H](CCC(=O)O)C(=O)N[C@@H](CC(=O)O)C(=O)N[C@H](C(=O)N[C@@H](CCC(=O)O)C(=O)N[C@@H](CS)C(=O)O)C(C)C [VSTM5]
- Ki (PSG (PSD-95); FP displacement of 5 nM FITC-15 AA CRIPT by non-labeled acetylated peptide, room temperature, Ki from IC50, technical triplicates, PSG): < 75 µM
- IC50 (PSG (PSD-95); [1]): 75 µM
- Ki (PSG (PSD-95); [2]): 31 µM
- IC50 (PSG G335A (PSD-95); [1]): 120 µM
- Ki (PSG G335A (PSD-95); [1]): 43 µM
- IC50 (PSG G322A G335A (PSD-95); [3]): 73 µM
- IC50 (PSG G322A (PSD-95); [1]): 86 µM
- Ki (PSG G322A (PSD-95); [1]): 37 µM
